Data: US20240116985A1, “STAPLED PEPTIDES AND METHODS THEREOF” (priority 2020, published 2024)

Tests used:
[1] = molecular target: T1, full-length B-Catenin (Uniprot ID P35222) (Homo sapiens, UniProt P35222); assay: Alphascreen binding assay (beta-catenin / biotin-TCF4 10-53)
T1 construct: 65 nM full-length B-Catenin (Uniprot ID P35222)
T1 sequence (P35222 1-781): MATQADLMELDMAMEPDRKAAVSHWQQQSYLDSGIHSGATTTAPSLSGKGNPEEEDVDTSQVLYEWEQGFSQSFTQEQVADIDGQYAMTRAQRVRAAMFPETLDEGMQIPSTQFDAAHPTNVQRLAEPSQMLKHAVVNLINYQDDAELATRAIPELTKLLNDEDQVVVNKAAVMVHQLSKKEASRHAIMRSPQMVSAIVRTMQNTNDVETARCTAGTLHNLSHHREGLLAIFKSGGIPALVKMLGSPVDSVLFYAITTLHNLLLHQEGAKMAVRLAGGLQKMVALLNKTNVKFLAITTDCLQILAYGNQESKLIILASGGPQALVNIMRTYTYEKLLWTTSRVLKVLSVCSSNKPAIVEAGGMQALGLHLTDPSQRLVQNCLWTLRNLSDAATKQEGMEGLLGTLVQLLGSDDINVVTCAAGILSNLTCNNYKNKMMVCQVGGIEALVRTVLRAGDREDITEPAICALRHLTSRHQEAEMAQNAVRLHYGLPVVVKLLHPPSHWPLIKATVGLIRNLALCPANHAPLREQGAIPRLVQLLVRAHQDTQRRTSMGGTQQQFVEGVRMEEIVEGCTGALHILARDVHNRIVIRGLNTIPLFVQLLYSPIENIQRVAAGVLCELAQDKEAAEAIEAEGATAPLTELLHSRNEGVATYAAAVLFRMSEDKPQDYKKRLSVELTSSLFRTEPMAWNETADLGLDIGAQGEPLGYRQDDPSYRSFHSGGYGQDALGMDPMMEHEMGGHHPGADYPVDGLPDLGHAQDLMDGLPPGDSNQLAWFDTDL
Summary of the method: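 AlphaScreen (Ni-chelate beads) competition in 50 mM Tris pH 8.0, 250 mM NaCl with detergents and 0.1% BSA. Peptide titrated 10 uM–5 nM against 65 nM human β-catenin bound to 10 nM biotinylated TCF4 10-53, 15 min then 60 min with beads, both at 20 °C; 1:1 Hill-slope fit.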

CHI Log D procedure = format: physicochemical; conditions: for CHI Log D: pH 7.4; for chromatographic logD: pH 7.4, CHI Log D

Row | EC50 [1] [µM] | CHI Log D (CHI Log D procedure) | chromatographic logD (CHI Log D procedure) | Compound
1 | 0.495 | 2.383 | – | CC(=O)N1CCC[C@]12CC=CCCCC1(CCCC=CCCCCCC[C@@](C)(C(=O)N[C@@H](Cc3ccccc3)C(=O)N[C@@H](Cc3c[nH]c4ccccc34)C(=O)NC(C)(C)C(N)=O)NC(=O)[C@H](C(C)C)NC(=O)[C@H](Cc3ccccc3)NC(=O)[C@H](C)NC(=O)[C@H](C)NC(=O)[C@H](CCC(=O)O)NC(=O)[C@H](CC(=O)O)NC1=O)NC(=O)[C@H](C)NC(=O)[C@H](CC(=O)O)NC2=O (stereo partly drawn) [I-133, Ac-PL3-Asp-Ala-B5-Asp-Glu-Ala-Ala-Phe-Val-S8-Phe-Trp-Aib-NH2]
2 | 0.384 | 2.067 | – | CC(=O)N1CCC[C@]12CC=CCCCC1(CCCC=CCCCCCC[C@@](C)(C(=O)N[C@@H](Cc3ccccc3)C(=O)N[C@@H](Cc3c[nH]c4ccccc34)C(=O)N[C@@H](CCC(N)=O)C(N)=O)NC(=O)[C@H](C(C)C)NC(=O)[C@H](Cc3cccc(C(F)(F)F)c3)NC(=O)[C@H](C)NC(=O)[C@H](C)NC(=O)[C@H](CC(=O)O)NC(=O)[C@H](CC(=O)O)NC1=O)NC(=O)[C@H](C)NC(=O)[C@H](CC(=O)O)NC2=O (stereo partly drawn) [I-236, Ac-PL3-Asp-Ala-B5-Asp-Asp-Ala-Ala-3F3MeF-Val-S8-Phe-Trp-Gln-NH2]
3 | 2.83 | 2.263 | – | CC(=O)N1CCC[C@]12CC=CCCCC1(CCCC=CCCCCCC[C@@](C)(C(=O)N[C@@H](Cc3cccc(C(F)(F)F)c3)C(=O)N[C@@H](Cc3c[nH]c4ccccc34)C(=O)N[C@@H](CCC(N)=O)C(N)=O)NC(=O)[C@H](C(C)C)NC(=O)[C@H](Cc3ccccc3)NC(=O)[C@H](C)NC(=O)[C@H](C)NC(=O)[C@H](CC(=O)O)NC(=O)[C@H](CC(=O)O)NC1=O)NC(=O)[C@H](C)NC(=O)[C@H](CC(=O)O)NC2=O (stereo partly drawn) [I-249, Ac-PL3-Asp-Ala-B5-Asp-Asp-Ala-Ala-Phe-Val-S8-3F3MeF-Trp-Gln-NH2]
4 | 4.18 | – | 2.9 | CC(=O)N1CCC[C@]12CC=CCCCC1(CCCC=CCCCCCC[C@@](C)(C(=O)N[C@@H](Cc3ccccc3)C(=O)N[C@@H](Cc3c[nH]c4ccccc34)C(=O)N[C@@H](CCC(N)=O)C(N)=O)NC(=O)[C@H](C(C)C)NC(=O)[C@H](Cc3ccccc3)NC(=O)[C@H](C)NC(=O)[C@H](C)NC(=O)[C@H](Cc3ccc(F)c(F)c3)NC(=O)[C@H](CC(=O)O)NC1=O)NC(=O)[C@H](C)NC(=O)[C@H](CC(=O)O)NC2=O (stereo partly drawn) [I-259, Ac-PL3-Asp-Ala-B5-Asp-34FF-Ala-Ala-Phe-Val-S8-Phe-Trp-Gln-NH2]
5 | 0.797 | 1.346 | – | CC(=O)N1CCC[C@]12CC=CCCCC1(CCCC=CCOC(=O)N(C)CCC[C@@](C)(C(=O)N[C@@H](Cc3ccccc3)C(=O)N[C@@H](Cc3c[nH]c4ccccc34)C(=O)N[C@@H](CCC(N)=O)C(N)=O)NC(=O)[C@H](C(C)C)NC(=O)[C@H](Cc3ccccc3)NC(=O)[C@H](C)NC(=O)[C@H](C)NC(=O)[C@H](CCC(=O)O)NC(=O)[C@H](CC(=O)O)NC1=O)NC(=O)[C@H](C)NC(=O)[C@H](CC(=O)O)NC2=O (stereo partly drawn) [I-130, Ac-PL3-Asp-Ala-B5-Asp-Glu-Ala-Ala-Phe-Val-SeN-Phe-Trp-Gln-NH2]
6 | 1.2 | 2.299 | – | CC(=O)N1CCC[C@]12CC=CCCCC1(CCCC=CCCCCCC[C@@](C)(C(=O)N[C@@H](Cc3cccc(C(F)(F)F)c3)C(=O)N[C@@H](Cc3c[nH]c4ccccc34)C(=O)N[C@@H](CCC(N)=O)C(N)=O)NC(=O)[C@H](C(C)C)NC(=O)[C@H](Cc3ccccc3)NC(=O)[C@H](C)NC(=O)[C@H](C)NC(=O)[C@H](CC(=O)O)NC(=O)[C@H](CC(=O)O)NC1=O)NC(=O)[C@H](C)NC(=O)[C@H](CC(=O)O)NC2=O (stereo partly drawn) [I-251, Ac-PL3-Asp-Ala-B5-Asp-Asp-Ala-Ala-Phe-Val-S8-3F3MeF-Trp-Gln-NH2]
7 | 3.24 | 2.188 | – | CC(=O)N1CCC[C@]12CC=CCCCC1(CCCC=CCCCCCC[C@@](C)(C(=O)N[C@@H](Cc3cccc(Cl)c3)C(=O)N[C@@H](Cc3c[nH]c4ccccc34)C(=O)N[C@@H](CCC(N)=O)C(N)=O)NC(=O)[C@H](C(C)C)NC(=O)[C@H](Cc3ccccc3)NC(=O)[C@H](C)NC(=O)[C@H](C)NC(=O)[C@H](CC(=O)O)NC(=O)[C@H](CC(=O)O)NC1=O)NC(=O)[C@H](C)NC(=O)[C@H](CC(=O)O)NC2=O (stereo partly drawn) [I-310, Ac-PL3-Asp-Ala-B5-Asp-Asp-Ala-Ala-Phe-Val-S8-3C1F-Trp-Gln-NH2]
8 | 4.18 | – | 1.07 | CC(=O)N[C@@H](C)C(=O)N[C@@H](CC(=O)O)C(=O)N[C@@H](C)C(=O)N[C@]1(C)CCN(C)C(=O)OCC=CCCCCC[C@@](C)(C(=O)N[C@@H](Cc2ccccc2)C(=O)N[C@@H](Cc2c[nH]c3ccccc23)C(=O)N[C@@H](Cc2c[nH]cn2)C(N)=O)NC(=O)[C@H](CCC(N)=O)NC(=O)[C@H](Cc2ccccc2)NC(=O)[C@H](C)NC(=O)[C@H](C)NC(=O)[C@H](CCC(=O)O)NC(=O)[C@H](CC(=O)O)NC1=O [I-156, Ac-Ala-Asp-Ala-RdN-Asp-Glu-Ala-Ala-Phe-Gln-S7-Phe-Trp-His-NH2]
9 | 7.64 | – | 3.04 | CC(=O)N1CCC[C@]12CC=CCCCC1(CCCC=CCCCCCC[C@@](C)(C(=O)N[C@@H](Cc3ccccc3)C(=O)N[C@@H](Cc3c[nH]c4ccccc34)C(=O)N[C@@H](CCC(N)=O)C(N)=O)NC(=O)[C@H](C(C)C)NC(=O)[C@H](Cc3ccccc3)NC(=O)[C@H](C)NC(=O)[C@H](C)NC(=O)[C@H](Cc3ccc4ccccc4c3)NC(=O)[C@H](CC(=O)O)NC1=O)NC(=O)[C@H](C)NC(=O)[C@H](CC(=O)O)NC2=O (stereo partly drawn) [I-232, Ac-PL3-Asp-Ala-B5-Asp-2NapA-Ala-Ala-Phe-Val-S8-Phe-Trp-Gln-NH2]
10 | 6.15 | 3.809 | – | CC(=O)N1CCC[C@]12CC=CCCCC1(CCCC=CCCCCCC[C@@](C)(C(=O)N[C@@H](Cc3ccccc3)C(=O)N[C@@H](Cc3c[nH]c4ccccc34)C(=O)N[C@@H](CCC(N)=O)C(N)=O)NC(=O)[C@H](C(C)C)NC(=O)[C@H](Cc3ccccc3)NC(=O)[C@H](C)NC(=O)[C@H](C)NC(=O)[C@H](CCC(=O)O)NC(=O)[C@H](CCc3ccccc3)NC1=O)NC(=O)[C@H](C)NC(=O)[C@H](CC(=O)O)NC2=O (stereo partly drawn) [I-197, Ac-PL3-Asp-Ala-B5-hPhe-Glu-Ala-Ala-Phe-Val-S8-Phe-Trp-Gln-NH2]
11 | 5.45 | – | 2.43 | CC(=O)N1CCC[C@]12CC=CCCCC1(CCCC=CCCCCCC[C@@](C)(C(=O)N[C@@H](Cc3ccccc3)C(=O)N[C@@H](Cc3ccc4ccccc4c3)C(N)=O)NC(=O)[C@H](C(C)C)NC(=O)[C@H](Cc3ccccc3)NC(=O)[C@H](C)NC(=O)[C@H](C)NC(=O)[C@H](CCC(=O)O)NC(=O)[C@H](CC(=O)O)NC1=O)NC(=O)[C@H](C)NC(=O)[C@H](CC(=O)O)NC2=O (stereo partly drawn) [I-141, Ac-PL3-Asp-Ala-B5-Asp-Glu-Ala-Ala-Phe-Val-S8-Phe-2NapA-NH2]
12 | 4.12 | 1.401 | – | CC(=O)N[C@@H](Cc1ccccc1)C(=O)N[C@@H](CC(=O)O)C(=O)N[C@@H](C)C(=O)N[C@]1(C)CCCCCCC=CCOC(=O)N2CC[C@@](C(=O)N[C@@H](Cc3ccccc3)C(=O)N[C@@H](Cc3c[nH]c4ccccc34)C(=O)N[C@@H](CCC(N)=O)C(N)=O)(C2)NC(=O)[C@H]([C@@H](C)O)NC(=O)[C@H](Cc2ccccc2)NC(=O)[C@H](C)NC(=O)[C@H](C)NC(=O)[C@H](CC(=O)O)NC(=O)[C@H](CC(=O)O)NC1=O [I-223, Ac-Phe-Asp-Ala-R8-Asp-Asp-Ala-Ala-Phe-Thr-PyrS-Phe-Trp-Gln-NH2]
